In patent US6939992B2, “Polymorphic forms of sertraline hydrochloride” (Ciba Specialty Chemicals Corporation, priority 1999, dated 2005):
Structures can show the parent of a compound that is named as a salt.

How the values were obtained:
[1] = disclosed in U.S. Pat. No. 5,248,699; cited from earlier work
[2] = Solubility of the polymorphic form; assay type: physicochemical
[3] = Thermal stability / transformation on heating in a DSC apparatus; assay type: physicochemical
Experimental: The crystalline polymorph CSC2 upon heating is transformed into form V at temperatures of about >120° C., whereupon a second transformation takes place into form III at temperatures of about >160° C. (experiment performed in a DSC apparatus with heating rate of 20° C./minute).

[4] = DSC apparatus, heating rate of 20° C./minute

SMILES	stability compared with the other crystalline forms of sertraline hydrochloride [1]	solubility [2]	thermal stability [3]	temperature of second transformation into form III upon heating [3, 4]	temperature of transformation into form V upon heating [3, 4]
CN[C@H]1CC[C@@H](c2ccc(Cl)c(Cl)c2)c2ccccc21 [form I, sertraline hydrochloride]	greatest stability				
CN[C@H]1CC[C@@H](c2ccc(Cl)c(Cl)c2)c2ccccc21 [CSC2, (1S-cis)-4-(3,4-dichlorophenyl)-1,2,3,4-tetrahydro-N-methyl-1-naphthalenamine hydrochloride]		high	good	> 160 °C	> 120 °C
